Here are results for 10 substances from patent publication US20090317419A1, “Tetramers” (Duke University, priority 2008, published 2009).

One assay concerns the target gp41 MPER tetramer. The experiment in a line: SPR, captured mAb, tetramer injected.
A further assay has as its target gp41 ID tetramer. The experiment in a line: SPR, captured mAb, tetramer injected.
Assay [1] relates to total naïve splenic BALB/c B cells. The settings on record: APC-labeled tetramer. As for the experimental part:
(§1) Cell isolation, serum collection, and PBMC isolations. Heparinized or non-heparanized blood was collected sub-mandibularly 10 days after immunizations. For preparation of peripheral blood lymphocytes for B cell tetramer analysis, PBMC were isolated from blood collected in heparinized tubes (0.2 ml) using Lympholyte M (Cederlane). For Luminex and ELISA assays, sera was isolated from non-heparanized blood and stored at −20° C. until use. Spleen, bone marrow (BM), and peritoneal cavity (PerC) cells were also collected. For most immunizations, tissues were harvested after the 4th boost, except for kinetic studies, in which tissues from mice were harvested after 1, 3 or 7 days after a single immunization. For BM preparations, femora and tibiae were removed, aspirated with tissue medium using 23 gauge needles, filtered with 70 μm cell strainers (BD labware), and RBC-depleted using Tris-buffered ammonium chloride lysis. For splenocyte preparation, spleens were harvested and dissociated into single-cell suspensions either by passage through 70 μm cell strainers in tissue medium or by using frosted glass slides, and blood erythrocytes were depleted with ammonium chloride lysis. For isolation of peritoneal cells, peritoneal cavities of sacrificed mice were lavaged by injection with 10 ml of PBS, followed by gentle massage of the abdomen, and withdrawal of the peritoneal exudates. BM, splenic, and peritoneal single cell suspensions were centrifuged at 1500 rpm for 5 min and resuspended in 5, 10, and 1 ml of tissue media, respectively, for cell counts and immunofluorescence staining. Cell counts were performed in duplicate on a Coulter ZI Dual Threshold Cell Counter (Coulter).
(§2) Antibodies and flow cytometry. Immunofluorescent staining of single cell suspensions (≧2×10^6) was conducted using pre-mixed combinations of fluorochrome-labeled antibodies and APC-conjugated B cell tetramers at empirically-determined optimal concentrations. All antibodies were from BD unless otherwise stated. […] Other reagents included biotinylated antibodies against dump channel markers: Thy1 (Ox7; Abcam), F4/80 (BM8; Abcam), CD11c (clone HL3), Gr-1 (clone RB6-8C5), TER-119, and NK-1.1 (clone PK136), secondary staining SA-Texas Red conjugate; v-amine live/dead violet dye (Molecular Probes), and Fc block (anti-CD16/32; clone 2.4G2).
(§3) Staining was conducted at 4° C. in several sequential steps in FACS staining buffer (1×PBS with 2% FCS, 0.1% NaN3), washing twice between steps. First, cells were incubated with v-amine live/dead dye for 15 min. Next, cells were stained with APC-labeled tetramers for 30 min. Where applicable, this was preceded by addition of cold tetramer at 10 fold molar excess for 1 h. Finally, cells were stained with Fc block for 30 min, followed by incubation with combinations of primary antibody cocktails for 30 min, and secondary staining with SA-Texas Red for 30 min.
(§4) Data were acquired using an LSRII flow cytometer and Cell Quest software (BD Immunocytometry systems). A minimum of 250000 events were acquired per sample. FACS Analysis was performed using FlowJo software (Tree Star). For analysis, single cells were positively gated based on their forward scatter height vs. forward scatter area and side scatter height vs. side scatter area profiles, lymphocytes were then positively gated based on their forward and side scatter profile (live lymphocyte gate), residual dead cells were excluded with negative gating on v-amine live/dead dye, and all irrelevant non-B cells were excluded with negative gating on dump markers Thy1, F4/80, CD11c, Gr-1, TER-119, and NK-1.1.

The subject of assay [2] is B cell subsets from naive C57BL/6 mice. Here is the method: as §1, §2, §3, §4
To examine if gp41 2F5 MPER epitope reactivity across B cell subsets mapped similarly on the IgH^b allotype, reactivity to gp41 2F5 MPER tetramers was measured by measuring the percentage of APC-labeled gp41 2F5 MPER tetramer-reactive cells in C57BL/6 bone marrow, splenic, and peritoneal B cell subsets (Table 10).

For the next assay, the system named is mAb 7B2 on beads. The settings on record: flow cytometry. As for the experimental part: Antibody-coated beads. Carboxyl-polystyrene beads (3.0-3.4 μm) (Spherotech, Inc., Lake Forest, Ill.) were resuspended in 0.01 M sodium acetate buffer (pH 5.0) and reacted (20° C.×1 hr) with 1-ethyl-3-(3-dimethylaminopropyl) carbodiimide hydrochloride (EDC) (Sigma-Aldrich, Co., St. Louis, Mo.) at a ratio of 3.1 mg beads to 1 mg EDC. Beads were washed with sodium acetate buffer, resuspended in a minimal volume before adding purified mAb in the same buffer (ratio of 16 mg beads to 1 mg mAb), incubated (20° C.×2 hrs), then washed with sodium acetate buffer. Beads were resuspended at 5% in PBS containing 1% bovine serum albumin and 0.02% sodium azide.
(§5) Use of antibody-coated beads and cell lines for tetramer quality control. Tetramer stocks were diluted to twice the desired final concentration in PBS containing 1% BSA. An equal volume of beads or cells at 5×10^5 up to 2×10^6 per sample were mixed with tetramer and incubated (4° C.×30 min). Beads or cells were washed with PBS+1% BSA before being fixed in 2% methanol-free formaldehyde (Polysciences, Inc, Warrington, Pa.) in PBS. Samples were stored at 4° C. prior to being analyzed by flow cytometry (BD LSR II, Becton Dickinson, Mountain View, Calif.). Data were analyzed using FlowJo (Tree Star, Ashland, Oreg.). For tetramer titration 40-80 ng tetramer per 10^6 cells/beads was serially diluted over 8-12 points. Optimal concentrations determined by this method were used for subsequent experiments. For cold competition experiments the incubation step was performed by staining with 10-fold excess unlabeled tetramer (4° C.×30 min) prior to the addition of APC-labeled tetramer. For cell dilution experiments, a mixture of mAb cell lines was made and then 1:10 serial dilutions of cells prepared. For cross competition experiments, mixtures of cells were prepared and then stained singly with anti-IgG reagents or tetramer, or the cells were doubly stained with both reagents either sequentially or concurrently.
Background: Flow cytometry measures light scatter and fluorescence of single cells or particles in a stream.

For another assay, the system named is 7B2 cells. The settings on record: flow cytometry. Here is the method: as §5
Assay [3] deals with 62.19 V3 tetramer.
62.19 V3 tetramer, sequence (P22629 37-163 limits assumed): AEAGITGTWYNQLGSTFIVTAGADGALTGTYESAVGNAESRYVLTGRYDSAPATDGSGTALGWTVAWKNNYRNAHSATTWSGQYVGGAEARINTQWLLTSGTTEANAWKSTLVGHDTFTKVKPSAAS
Assay [4] addresses 62.19 V3 tetramer. The experiment in a line: SPR, captured mAb, tetramer injected. On the technique in general: SPR reads the build-up and loss of mass on a sensor chip optically.
A further assay has as its target B.con03 V3 tetramer. The assay can be described thus: SPR, captured mAb, tetramer injected.
The next assay deals with 2F5 mAb. The experiment in a line: Binding of alanine substituted gp41 MPER tetramers to 2F5 (antibody-coated beads and SPR). Details: species or system human. The settings on record: flow cytometry on antibody-coated beads and SPR. As for the experimental part:
(§6) Data were analyzed using FlowJo (Tree Star, Ashland, Oreg.).
(§7) Development of gp41 MPER tetramers specific for neutralizing vs. non-neutralizing antibodies. […] Therefore, the next question asked was whether gp41 MPER tetramers could be made that preferentially react with either of these two prototype antibodies that would make it possible to discriminate between neutralizing 2F5-like gp41 MPER antibodies and non-neutralizing 13H11-like MPER antibodies. To address this issue, a series of gp41 MPER tetramers were made with alanine substitutions along the primary sequence (see Table 8) and assayed for the binding of 13H11 or 2F5 by flow cytometry on antibody-coated beads and by SPR (FIGS. 6C and 6D). […] Thus, tetramers made with the A13 or A15 mutant will bind B cells only with surface Ig similar to the non-neutralizing 13H11 antibody while tetramers made with the A14, A18, or A20 mutants will bind B cells only with surface Ig with specificities similar to the neutralizing 2F5 antibody.

The next assay deals with 13H11 mAb. The assay can be described thus: Binding of alanine substituted gp41 MPER tetramers to 13H11 (antibody-coated beads and SPR). Also noted: species or system mouse. The settings on record: flow cytometry on antibody-coated beads and SPR. As for the experimental part:
as §6, §7

Where “and” joins values, the source holds several entries; their conditions need not be identical. Equal entries are not always repeated. Where two headings read alike, the source gives them in different places. Ends that are not written are not given here. * marks the point of attachment. Biotin = O=C1N[C@H]2[C@H](CS[C@H]2CCCCC(=O)*)N1

gp41 MPER tetramer, sequence (P22629 37-163 limits assumed): as above
gp41 ID tetramer, sequence (P22629 37-163 limits assumed): as above
B.con03 V3 tetramer, sequence (P22629 37-163 limits assumed): as above

For orientation: koff means the first-order rate constant of dissociation. Read a high koff as a short-lived complex. One may read the kon as a measure of how fast the partners come together. In the assay with gp41 MPER tetramer, 2F5 (antibody) came in with a koff of 0.00037 s⁻¹ and a kon of 174000 M⁻¹ s⁻¹.

In the assay with gp41 ID tetramer, 7B2 (antibody) displayed a koff of 0.0011 s⁻¹ and an association rate constant (kon) of 1200 M⁻¹ s⁻¹.

For “Biotin-GGGNKEQDQAEESLQLWEKLNWL [gp41 MPER scrambled tetramer]”, the “binding to total naïve splenic B cells” value in assay [1] was “Negligible binding”. The “% of subset binding tetramer ± SEM” value in assay [2] (C57BL/6, Bone marrow, Immature) is reported as 0.10 ± 0.02%; in assay [2] (C57BL/6, Bone marrow, MF) it was 0.09 ± 0.02%; in assay [2] (C57BL/6, Bone marrow, Pro/pre), 0.06 ± 0.01%; in assay [2] (C57BL/6, Bone marrow, T1), 0.12 ± 0.02%; in [2] (C57BL/6, Bone marrow, T2), 0.11 ± 0.01%; in assay [2] (C57BL/6, Peritoneum, B1a), 0.14 ± 0.03%. Moreover, the “% of subset binding tetramer ± SEM” value in assay [2] (C57BL/6, Peritoneum, B1b) was found to be 0.13 ± 0.02%; in assay [2] (C57BL/6, Peritoneum, B2), 0.15 ± 0.03%; in assay [2] (C57BL/6, Spleen, MF), 0.11 ± 0.02%; in [2] (C57BL/6, Spleen, MZ) it was 0.09 ± 0.01%; in assay [2] (C57BL/6, Spleen, T1) it was 0.08 ± 0.01%; in assay [2] (C57BL/6, Spleen, T2), 0.10 ± 0.02%.

Consider “Biotin-GGGQLDSIQKEVYQLGRQLVWCTARLATKLVGKACGIL (cysteine pairing not given here) [gp41 ID scrambled tetramer]”, for which the “binding to antibody-coated beads” value with mAb 7B2 on beads was “higher background”. For the same substance, the “binding to mAb cell line” value with 7B2 cells is reported as “higher background”.

With F39F (antibody), in the assay with 62.19 V3 tetramer [3], the % of cells in the tetramer-positive quadrant was 6%; the % of cells positive for both tetramer and anti-IgG was 6.34% and 6.22% and 6.05%. Further, in the assay with 62.19 V3 tetramer [4], the koff amounted to 0.0006 s⁻¹ and the kon is 60500 M⁻¹ s⁻¹. Further, in the assay with B.con03 V3 tetramer, the koff stood at 0.00065 s⁻¹ and the kon came out at 83400 M⁻¹ s⁻¹.

For “QQEKNEQELLELAKWASLWN (QQEKNEQELLELAKWASLWN; also: tetramer with streptavidin) [A13, alanine substituted gp41 MPER tetramer]”, the “binding to 2F5 mAb” value in the assay on 2F5 mAb is listed as “eliminated binding”.

For the substance “QQEKNEQELLELDAWASLWN (QQEKNEQELLELDAWASLWN; also: tetramer with streptavidin) [A14, alanine substituted gp41 MPER tetramer]”, in the assay on 13H11 mAb, the “binding to non-neutralizing mAb 13H11” value is “significantly reduced or eliminated binding”.

As to “QQEKNEQELLELDKAASLWN (QQEKNEQELLELDKAASLWN; also: tetramer with streptavidin) [A15, alanine substituted gp41 MPER tetramer]”, in the assay on 2F5 mAb, the “binding to 2F5 mAb” value was “eliminated binding”.

For the substance “QQEKNEQELLELDKWASAWN (Biotin-GGGQQEKNEQELLELDKWASAWN; also: tetramer with streptavidin) [A18, alanine substituted gp41 MPER tetramer]”, in the assay on 13H11 mAb, the “binding to non-neutralizing mAb 13H11” value is on record as “significantly reduced or eliminated binding”.

Regarding “QQEKNEQELLELDKWASLWA (QQEKNEQELLELDKWASLWA; also: tetramer with streptavidin) [A20, alanine substituted gp41 MPER tetramer]”, the “binding to non-neutralizing mAb 13H11” value in the assay on 13H11 mAb is given as “significantly reduced or eliminated binding”.
